# Reference: patent publication US12103939B2, “Solid pharmaceutical gold-based composition” (KING FAHD UNIVERSITY OF PETROLEUM AND MINERALS, priority 2019, dated 2024)
# Assays:
# [1] = system: thioredoxin reductase (TrxR); assay: Thioredoxin reductase activity in lysates of treated PC3 cells; settings: PC3, C6 at IC25, IC50, IC75, 12 h
# Method: All experimental conditions were tested in triplicate and experiments were done three times to calculate means and SD.
# Thioredoxin reductase (TrxR) (EC 1.8.1.9) was assayed using the Thioredoxin Reductase Assay Kit (Sigma-Aldrich). […] Enzyme activity was determined reading absorbance at 412 nm using a spectrophotometer (Biomate 3 Thermo Spectronic). The enzymatic activity was normalized to the protein concentration, determined using the Bio-Rad protein assay (Protein Assay Dye Reagent Concentrate, Bio-Rad Laboratories), and expressed as percentage of control (no C6).
# [2] = system: normal human adipose-derived stromal cells (ADSCs); assay: Growth inhibition in adipose-derived stromal cells (MTT, 72 h); assay type: cell-based; settings: MTT after 72 h
# Method: Human adipose-derived stromal cells (ADSCs) were from Lonza (Verviers, Belgium). ADSCs were maintained in MSGM bullet kit (Lonza) and experiments were performed in DMEM (Cambrex Bio Science, Milan, Italy) supplemented with 10% FBS. To evaluate effects of C6, ADSCs were seeded in 96-well flat-bottomed microplates (5.0×10^3 cells in 100 μL per well) and incubated for 24 h (to allow cell adhesion) before drug testing. The medium was removed and replaced with fresh medium containing C6 at increasing concentrations (from 0.1 to 1 μM). Cells were incubated at 37° ° C. for 72 h. Each treatment was performed in triplicate. Cell growth was measured using the MTT assay.
# PC3 cells = assay: In vitro scratch assay (cell migration); assay type: cell-based, human; settings: PC3, 3 h pretreatment with C6 (IC50), 36 h after scratch; control about 10%
# Method: Cell migration was assessed using the in vitro scratch assay. Briefly, cells were grown to confluence and then treated with C6 (IC50). After 3 h, monolayers were washed twice with PBS, scraped with a pipette tip to create a “wound” in the monolayer, and washed again. Culture medium with 2% (not 10%) FBS was added and the cells were cultured for 36 h. Wounds were photographed every 12 h using an inverted microscope (EclipseTS/100, Nikon) at magnification 4×. Migration was assessed by measuring the cell-free area (in pixels) with ImageJ tool software after 12, 24 and 36 h.
# caspase 3,7 = assay: Caspase 3,7 activation (FLICA, flow cytometry); assay type: cell-based, human; settings: PC3, 24 h
# Method: For apoptosis assays, PC3 cells were treated with C6 for 24 h and then apoptosis was assayed by staining for 15 min with FITC Annexin V reagent (BD Pharmingen) and propidium iodide (PI). Apoptotic cells were detected by flow cytometry (BD FACSCanto II flow cytometer) and analyzed using BD FACSDiva v8.0.1 software (BD Biosciences). Caspase 3,7 activation was evaluated using fluorochrome-labeled inhibitors of caspases (FLICA) of the CaspaTag Caspase 3,7 In Situ Assay Kit, Fluorescein (Millipore) and evaluated by flow cytometry; data were expressed as mean fluorescence intensity.
# 20S proteasome = 20S proteasome activity in lysates of treated PC3 cells; assay type: cell-based, human; settings: PC3, 12 h
# Method: Proteasome activity (EC 3.4.25.1) was evaluated on the same cell lysates as used to assay TrxR. Proteasome activity was assayed in cytosolic extracts using the 20S Proteasome Activity Assay kit APT280 (Merck Millipore) and a computer-interfaced GeniusPlus microplate reader (Tecan).
structure (smiles),measurement,setting,value
"C[N+](C)=C1[S][Au-]2([S]1)[n+]1ccc[n+]3c1-c1[n+]2ccc[n+]1[Au-]31[S]C(=[N+](C)C)[S]1.[Cl-].[Cl-].[Cl-].[Cl-] [C6, [Au2(BPM)(DMDTC)2]Cl4]",TrxR enzymatic activity,[1],dose-dependent decrease of its enzymatic activity
same,IC50,[2],1400 nM
same,remaining uncovered area in scratch assay,PC3 cells,about 40%
same,"caspase 3,7 activation (FLICA)","caspase 3,7","activated caspase 3,7"
same,20S proteasome activity,20S proteasome,dose-dependent inhibitory effect
